From patent US6673783B2, “Fusidic acid derivatives” (Leo Pharmaceutical Products Ltd. A/S, priority 2001, dated 2004)
In brackets after ≈: the same amount, converted by molar mass.

Columns and labels:
S. aureus ATC6538P = assay: MIC, agar diffusion method, S. aureus ATC6538P; format: cell-based; settings: for MIC: Staphylococcus aureus, read-out: MIC value (concentration in μg/ml required for 90% inhibition)
Text: (§1) In vitro investigations have evidenced high potency of compounds of the invention against several bacteria including Staphylococci, Streptococci, Corynebacteriae, Mycobacteriae and Neisseriae. […] The potency of new fusidic acid analogues are estimated by comparing the inhibition of growth of different microorganisms produced by known concentrations of the analogue to be examined and a reference like fusidic acid. The microbiological assay set up is in agreement with the European Pharmacopoeia 3rd edition (1997). It is an agar diffusion method where the same volume of the tested solution is added to cavities in agar. The inhibition zones are function of the concentration of the fusidic acid analogue used. All assays are run with fusidic acid as reference substance. [drawing 7]

S. aureus ATCC 29213 = assay: MIC, agar diffusion method, S. aureus ATCC 29213; format: cell-based; settings: for MIC: Staphylococcus aureus, ATCC29213, read-out: MIC value (concentration in μg/ml required for 90% inhibition)
Text: as §1

S. aureus CJ232 = assay: MIC, agar diffusion method, S. aureus CJ232 (MRSA); format: cell-based; settings: for MIC: Staphylococcus aureus, read-out: MIC value (concentration in μg/ml required for 90% inhibition)
Text: as §1

S. aureus CJ234 (R) = assay: MIC, agar diffusion method, S. aureus CJ234 (R) (MRSA and Rifampicin resistant); format: cell-based; settings: for MIC: Staphylococcus aureus, read-out: MIC value (concentration in μg/ml required for 90% inhibition)
Text: as §1

S. epidermidis ATCC12228 = assay: MIC, agar diffusion method, S. epidermidis ATCC12228; format: cell-based; settings: for MIC: Staphylococcus epidermidis, read-out: MIC value (concentration in μg/ml required for 90% inhibition)
Text: as §1

[1] = tested on: Str. pyrogenes Leo id: EC5; assay: MIC, agar diffusion method, Str. pyrogenes Leo id: EC5; format: cell-based; settings: for MIC: read-out: MIC value (concentration in μg/ml required for 90% inhibition)
Text: as §1

Str. pyrogenes NCTC8304 = assay: MIC, agar diffusion method, Str. pyrogenes NCTC8304; format: cell-based; settings: for MIC: read-out: MIC value (concentration in μg/ml required for 90% inhibition)
Text: as §1

Str.mitis Leo id: EG5 = assay: MIC, agar diffusion method, Str.mitis Leo id: EG5; format: cell-based; settings: for MIC: Streptococcus mitis, read-out: MIC value (concentration in μg/ml required for 90% inhibition)
Text: as §1

Str. sp. ATCC12449 = assay: MIC, agar diffusion method, Str. sp. ATCC12449; format: cell-based; settings: for MIC: read-out: MIC value (concentration in μg/ml required for 90% inhibition)
Text: as §1

Str. sp. Leo id: EF6 = assay: MIC, agar diffusion method, Str. sp. Leo id: EF6; format: cell-based; settings: for MIC: read-out: MIC value (concentration in μg/ml required for 90% inhibition)
Text: as §1

[2] = tested on: Str. salvarius LEO-ID EG7; assay: MIC, agar diffusion method, Str. salvarius LEO-ID EG7; format: cell-based; settings: for MIC: read-out: MIC value (concentration in μg/ml required for 90% inhibition)
Text: as §1

[3] = tested on: Str. faecium Leo-id: E119(P); assay: MIC, agar diffusion method, Str. faecium Leo-id: E119(P) (penicillin resistant); format: cell-based; settings: for MIC: Enterococcus faecium, read-out: MIC value (concentration in μg/ml required for 90% inhibition)
Text: as §1

[4] = tested on: several bacteria including Staphylococci, Streptococci, Corynebacteriae, Mycobacteriae and Neisseriae; assay: In vitro antibacterial activity, agar diffusion with fusidic acid as reference; format: cell-based; settings: biological tests, see Table 1
Text: as §1

bacteria = settings: reduction of C-24/C-25 and C-17/C-20 double bonds of fusidic acid; von Daehne et al. 1979; cited from earlier work

## CC(=O)O[C@H]1C[C@@]2(C)C(CC(O)[C@@H]3C2(C)CCC2C(C)C(O)CC[C@@]23C)C12CC2(CCC=C(C)C)C(=O)O (stereo partly drawn) [Compound 101, 17S,20S-Methanofusidic acid]
S. aureus ATC6538P
  MIC: 0.125 µg/mL (≈ 0.236 µM)
S. aureus ATCC 29213
  MIC: 0.125 µg/mL (≈ 0.236 µM)
S. aureus CJ232
  MIC: 0.125 µg/mL (≈ 0.236 µM)
S. aureus CJ234 (R)
  MIC: 0.004 µg/mL (≈ 0.00754 µM)
S. epidermidis ATCC12228
  MIC: 0.125 µg/mL (≈ 0.236 µM)
[1]
  MIC: 16 µg/mL (≈ 30.1 µM)
Str. pyrogenes NCTC8304
  MIC: 4 µg/mL (≈ 7.54 µM)
Str.mitis Leo id: EG5
  MIC: 4 µg/mL (≈ 7.54 µM)
Str. sp. ATCC12449
  MIC: 16 µg/mL (≈ 30.1 µM)
Str. sp. Leo id: EF6
  MIC: 4 µg/mL (≈ 7.54 µM)
[2]
  MIC: 4 µg/mL (≈ 7.54 µM)
[3]
  MIC: 0.125 µg/mL (≈ 0.236 µM)
[4]
  antibacterial activity compared to that of fusidic acid (1): comparable antibacterial activity
other
  melting point: 243 to 245 °C

## CC(=O)OC1CC2(C)C(CC(O)C3C4(C)CCC(O)C(C)C4CCC32C)C12CC2(CCCC(C)C)C(=O)O (stereo not drawn) [Compound 102, 24,25-Dihydro-17S,20S-methanofusidic acid]
S. aureus ATC6538P
  MIC value (concentration in μg/ml required for 90% inhibition): 0.125 µg/mL
S. aureus ATCC 29213
  MIC value (concentration in μg/ml required for 90% inhibition): 0.25 µg/mL
S. aureus CJ232
  MIC value (concentration in μg/ml required for 90% inhibition): 0.25 µg/mL
S. aureus CJ234 (R)
  MIC value (concentration in μg/ml required for 90% inhibition): 0.25 µg/mL
S. epidermidis ATCC12228
  MIC value (concentration in μg/ml required for 90% inhibition): 0.125 µg/mL
[1]
  MIC value (concentration in μg/ml required for 90% inhibition): 64 µg/mL
Str. pyrogenes NCTC8304
  MIC value (concentration in μg/ml required for 90% inhibition): 16 µg/mL
Str.mitis Leo id: EG5
  MIC value (concentration in μg/ml required for 90% inhibition): 64 µg/mL
Str. sp. ATCC12449
  MIC value (concentration in μg/ml required for 90% inhibition): 64 µg/mL
Str. sp. Leo id: EF6
  MIC value (concentration in μg/ml required for 90% inhibition): 64 µg/mL
[2]
  MIC value (concentration in μg/ml required for 90% inhibition): 16 µg/mL
[3]
  MIC value (concentration in μg/ml required for 90% inhibition): 1 µg/mL

## CC(=O)OC1CC2(C)C(CC(O)C3C4(C)CCC(=O)C(C)C4CCC32C)C12CC2(CCC=C(C)C)C(=O)O (stereo not drawn) [Compound 104, 3-Dehydro-17S,20S-methanofusidic acid]
S. aureus ATC6538P
  MIC value (concentration in μg/ml required for 90% inhibition): 0.125 µg/mL
S. aureus ATCC 29213
  MIC value (concentration in μg/ml required for 90% inhibition): 0.125 µg/mL
S. aureus CJ232
  MIC value (concentration in μg/ml required for 90% inhibition): 1.0 µg/mL
S. epidermidis ATCC12228
  MIC value (concentration in μg/ml required for 90% inhibition): 0.125 µg/mL
[1]
  MIC value (concentration in μg/ml required for 90% inhibition): 64 µg/mL
Str. pyrogenes NCTC8304
  MIC value (concentration in μg/ml required for 90% inhibition): 16 µg/mL
Str.mitis Leo id: EG5
  MIC value (concentration in μg/ml required for 90% inhibition): 64 µg/mL
Str. sp. ATCC12449
  MIC value (concentration in μg/ml required for 90% inhibition): 64 µg/mL
Str. sp. Leo id: EF6
  MIC value (concentration in μg/ml required for 90% inhibition): 64 µg/mL
[2]
  MIC value (concentration in μg/ml required for 90% inhibition): 64 µg/mL
[3]
  MIC value (concentration in μg/ml required for 90% inhibition): 0.25 µg/mL

## CC(C)=CCCC1(C(=O)O)CC12C(OC(=O)C(C)C)CC1(C)C2CC(O)C2C3(C)CCC(O)C(C)C3CCC21C (stereo not drawn) [Compound 107, 16-Deacetoxy-16β-(isopropionyloxy)-17S,20S-methanofusidic acid]
S. aureus ATC6538P
  MIC value (concentration in μg/ml required for 90% inhibition): 0.25 µg/mL
S. aureus ATCC 29213
  MIC value (concentration in μg/ml required for 90% inhibition): 1.0 µg/mL
S. aureus CJ232
  MIC value (concentration in μg/ml required for 90% inhibition): 1.0 µg/mL
S. epidermidis ATCC12228
  MIC value (concentration in μg/ml required for 90% inhibition): 0.25 µg/mL
[1]
  MIC value (concentration in μg/ml required for 90% inhibition): 64 µg/mL
Str. pyrogenes NCTC8304
  MIC value (concentration in μg/ml required for 90% inhibition): 64 µg/mL
Str.mitis Leo id: EG5
  MIC value (concentration in μg/ml required for 90% inhibition): 16 µg/mL
Str. sp. ATCC12449
  MIC value (concentration in μg/ml required for 90% inhibition): 64 µg/mL
Str. sp. Leo id: EF6
  MIC value (concentration in μg/ml required for 90% inhibition): 16 µg/mL
[2]
  MIC value (concentration in μg/ml required for 90% inhibition): 64 µg/mL
[3]
  MIC value (concentration in μg/ml required for 90% inhibition): 4 µg/mL

## CCOC1CC2(C)C(CC(O)C3C4(C)CCC(O)C(C)C4CCC32C)C12CC2(CCC=C(C)C)C(=O)O (stereo not drawn) [Compound 110, 16-Deacetoxy-16β-ethoxy-17S,20S-methanofusidic acid]
S. aureus ATC6538P
  MIC value (concentration in μg/ml required for 90% inhibition): 0.125 µg/mL
S. aureus ATCC 29213
  MIC value (concentration in μg/ml required for 90% inhibition): 0.125 µg/mL
S. aureus CJ232
  MIC value (concentration in μg/ml required for 90% inhibition): 1.0 µg/mL
S. aureus CJ234 (R)
  MIC value (concentration in μg/ml required for 90% inhibition): 0.004 µg/mL
S. epidermidis ATCC12228
  MIC value (concentration in μg/ml required for 90% inhibition): 0.125 µg/mL
[1]
  MIC value (concentration in μg/ml required for 90% inhibition): 64 µg/mL
Str. pyrogenes NCTC8304
  MIC value (concentration in μg/ml required for 90% inhibition): 4 µg/mL
Str.mitis Leo id: EG5
  MIC value (concentration in μg/ml required for 90% inhibition): 64 µg/mL
Str. sp. ATCC12449
  MIC value (concentration in μg/ml required for 90% inhibition): 64 µg/mL
Str. sp. Leo id: EF6
  MIC value (concentration in μg/ml required for 90% inhibition): 64 µg/mL
[2]
  MIC value (concentration in μg/ml required for 90% inhibition): 64 µg/mL
[3]
  MIC value (concentration in μg/ml required for 90% inhibition): 0.25 µg/mL

## CC(=O)O[C@H]1C[C@@]2(C)C(CC(O)[C@@H]3C2(C)CCC2C(C)C(O)CC[C@@]23C)/C1=C(\CCC=C(C)C)C(=O)O (stereo partly shown) [Fusidic acid (1), fusidic acid]
S. aureus ATC6538P
  MIC: 0.125 µg/mL (≈ 0.242 µM)
S. aureus ATCC 29213
  MIC: 0.125 µg/mL (≈ 0.242 µM)
S. aureus CJ232
  MIC: 0.125 µg/mL (≈ 0.242 µM)
S. aureus CJ234 (R)
  MIC: 0.004 µg/mL (≈ 0.00774 µM)
S. epidermidis ATCC12228
  MIC: 0.125 µg/mL (≈ 0.242 µM)
[1]
  MIC: 4 µg/mL (≈ 7.74 µM)
Str. pyrogenes NCTC8304
  MIC: 4 µg/mL (≈ 7.74 µM)
Str.mitis Leo id: EG5
  MIC: 4 µg/mL (≈ 7.74 µM)
Str. sp. ATCC12449
  MIC: 4 µg/mL (≈ 7.74 µM)
Str. sp. Leo id: EF6
  MIC: 4 µg/mL (≈ 7.74 µM)
[2]
  MIC: 4 µg/mL (≈ 7.74 µM)
[3]
  MIC: 0.125 µg/mL (≈ 0.242 µM)

## tetrahydrofusidic acid
bacteria
  antibacterial activity: almost complete loss of activity
